One assay deals with E. coli K12 PBP1a/b. Briefly: Bocillin FL competition binding assay, PBP1a/1b combined. Also on record: species or system Escherichia coli K12. The following applies: 15 min pre-incubation, PBP 1a/1b combined. In a few lines: (§1)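 E. coli K12 membrane extracts (100 µg protein) pre-incubated 15 min with compound (0.005–2,480 µg/mL) in pH 7 phosphate/350 mM NaCl, then labelled with Bocillin FL 30 min at 35°C; SDS-PAGE fluorescence (ex 450/em 520 nm), μg/mL reported. PBP1a/1b unresolved, reported combined.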

In another assay the target is T1, E. coli PBP2 (Escherichia coli, UniProt P0AD65).
T1 construct: 100 μg's of total membrane protein extracts containing PBPs; endogenous in cells; host or cells: Escherichia coli K12, membrane protein fraction
T1 sequence (P0AD65 whole entry): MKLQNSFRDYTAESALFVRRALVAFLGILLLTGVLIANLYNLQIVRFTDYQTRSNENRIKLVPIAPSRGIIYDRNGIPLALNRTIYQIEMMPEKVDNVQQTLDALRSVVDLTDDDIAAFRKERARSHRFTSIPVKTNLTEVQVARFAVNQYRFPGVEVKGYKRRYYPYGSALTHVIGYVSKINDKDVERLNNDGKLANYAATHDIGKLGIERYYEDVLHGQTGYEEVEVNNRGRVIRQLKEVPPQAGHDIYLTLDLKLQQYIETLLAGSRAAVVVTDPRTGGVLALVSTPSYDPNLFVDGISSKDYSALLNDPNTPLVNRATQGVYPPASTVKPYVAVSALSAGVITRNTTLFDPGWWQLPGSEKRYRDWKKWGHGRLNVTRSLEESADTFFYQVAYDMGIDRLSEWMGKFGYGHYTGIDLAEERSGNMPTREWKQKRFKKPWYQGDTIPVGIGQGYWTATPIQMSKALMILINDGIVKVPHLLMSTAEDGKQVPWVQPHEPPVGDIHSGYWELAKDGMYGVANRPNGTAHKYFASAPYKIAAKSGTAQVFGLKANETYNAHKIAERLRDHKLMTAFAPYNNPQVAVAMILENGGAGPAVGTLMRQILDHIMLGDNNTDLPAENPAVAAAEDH
The experiment in a line: Bocillin FL competition binding assay, PBP2. Also on record: species or system Escherichia coli K12. The following applies: 15 min pre-incubation. In a few lines:
as §1

A further assay has as its target T2, E. coli PBP3 (Escherichia coli, UniProt P0AD68).
T2 construct: 100 μg's of total membrane protein extracts containing PBPs; endogenous in cells; host or cells: Escherichia coli K12, membrane protein fraction
The experiment in a line: Bocillin FL competition binding assay, PBP3. Further details: species or system Escherichia coli K12. The settings on record: 15 min pre-incubation. In a few lines: as §1

Another assay has as its system S. aureus ATCC 29213. The experiment in a line: Broth microdilution MIC assay, S. aureus. The class given is cell-based. The following applies: Staphylococcus aureus, ATCC29213; broth microdilution, 16-20 hours at 37° C.; read-out: S. aureus 29213 MIC. The gist of the method:
(§2)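 CLSI broth microdilution in cation-supplemented Mueller-Hinton broth; 2-fold serial compound dilutions inoculated at 5×10^5 CFU/mL from 3-5 h log-phase cultures. Plates incubated 16-20 hours at 37° C. MIC read visually as lowest concentration with no bacterial growth.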

The subject of assay [1] is hyper-permeable E. coli 901C. The experiment in a line: Broth microdilution MIC assay, hyper-permeable E. coli. The class given is cell-based. The settings on record: Escherichia coli, read-out: E. coli 901C MIC. In a few lines:
as §2
A general note: Broth dilution looks for growth in wells or tubes with falling amounts of substance.

Bounds are passed on as bounds.

T2 sequence (P0AD68 1-577): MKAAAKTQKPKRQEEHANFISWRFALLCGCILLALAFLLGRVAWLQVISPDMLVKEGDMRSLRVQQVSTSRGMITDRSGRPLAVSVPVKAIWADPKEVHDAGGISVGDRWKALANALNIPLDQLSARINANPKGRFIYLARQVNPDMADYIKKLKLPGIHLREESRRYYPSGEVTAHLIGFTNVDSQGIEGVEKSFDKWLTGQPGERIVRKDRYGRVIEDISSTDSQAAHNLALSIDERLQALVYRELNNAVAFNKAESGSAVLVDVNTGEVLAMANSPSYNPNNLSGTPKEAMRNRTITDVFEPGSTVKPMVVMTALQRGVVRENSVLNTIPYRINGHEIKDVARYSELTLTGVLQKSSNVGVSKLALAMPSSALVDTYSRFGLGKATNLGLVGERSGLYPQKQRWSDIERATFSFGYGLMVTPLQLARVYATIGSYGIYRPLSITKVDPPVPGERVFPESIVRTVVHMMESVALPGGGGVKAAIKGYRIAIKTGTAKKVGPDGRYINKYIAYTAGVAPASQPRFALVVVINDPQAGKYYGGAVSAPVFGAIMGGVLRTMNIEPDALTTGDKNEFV

With `N=C(NCCN)c1ccc(OCCO/N=C(\C(=O)N[C@H]2Cc3cccc(C(=O)O)c3OB2O)c2csc(N)n2)cc1` [Example 64, (R,Z)-3-(2-((2-(4-(N-(2-aminoethyl)carbamimidoyl)phenoxy)ethoxy)imino)-2-(2-aminothiazol-4-yl)acetamido)-2-hydroxy-3,4-dihydro-2H-benzo[e][1,2]oxaborinine-8-carboxylic Acid], in the assay with E. coli K12 PBP1a/b, the “E. coli K12 PBP1a/b Potency” value is listed as “C (C represents a potency of <64 μg/mL)”. In addition, the “E. coli PBP2 Potency” value on E. coli PBP2 is “B (B represents a potency between 64 and 1000 μg/mL inclusive)”. The “E. coli PBP3 Potency” value on E. coli PBP3 is recorded as “C (C represents a potency of <64 μg/mL)”. For the same compound, the MIC (usually the lowest concentration that inhibits growth of the organism) in the assay with S. aureus ATCC 29213 was over 128 mg/L; in assay [1], under 64 mg/L.

Regarding `NCCCC[C@H](NC(=O)CO/N=C(\C(=O)N[C@H]1Cc2cccc(C(=O)O)c2OB1O)c1csc(N)n1)C(=O)O` [Example 65, (R)-3-((Z)-2-((2-(((S)-5-amino-1-carboxypentyl)amino)-2-oxoethoxy)imino)-2-(2-aminothiazol-4-yl)acetamido)-2-hydroxy-3,4-dihydro-2H-benzo[e][1,2]oxaborinine-8-carboxylic], the “E. coli K12 PBP1a/b Potency” value in the assay on E. coli K12 PBP1a/b is “C (C represents a potency of <64 μg/mL)”. For the same compound, the “E. coli PBP2 Potency” value at E. coli PBP2 was “B (B represents a potency between 64 and 1000 μg/mL inclusive)”. Further, the “E. coli PBP3 Potency” value on E. coli PBP3 was “C (C represents a potency of <64 μg/mL)”. Moreover, the values for the MIC (in the assay with S. aureus ATCC 29213; in assay [1]) were over 128 mg/L and under 64 mg/L, respectively.

Turning to `NCCCC[C@@H](NC(=O)CO/N=C(\C(=O)N[C@H]1Cc2cccc(C(=O)O)c2OB1O)c1csc(N)n1)C(=O)O` [Example 66, (R)-3-((Z)-2-((2-(((R)-5-amino-1-carboxypentyl)amino)-2-oxoethoxy)imino)-2-(2-aminothiazol-4-yl)acetamido)-2-hydroxy-3,4-dihydro-2H-benzo[e][1,2]oxaborinine-8-carboxylic Acid], in the assay with E. coli K12 PBP1a/b, the “E. coli K12 PBP1a/b Potency” value is listed as “C (C represents a potency of <64 μg/mL)”. Further, the “E. coli PBP2 Potency” value at E. coli PBP2 is “B (B represents a potency between 64 and 1000 μg/mL inclusive)”. The “E. coli PBP3 Potency” value at E. coli PBP3 is “C (C represents a potency of <64 μg/mL)”. Besides, the MIC with S. aureus ATCC 29213 is over 128 mg/L; in assay [1], under 64 mg/L.

Regarding `NCCCCCNC(=O)CO/N=C(\C(=O)N[C@H]1Cc2cccc(C(=O)O)c2OB1O)c1csc(N)n1` [Example 67, (R,Z)-3-(2-((2-((5-aminopentyl)amino)-2-oxoethoxy)imino)-2-(2-aminothiazol-4-yl)acetamido)-2-hydroxy-3,4-dihydro-2H-benzo[e][1,2]oxaborinine-8-carboxylic Acid], the “E. coli K12 PBP1a/b Potency” value with E. coli K12 PBP1a/b was “B (B represents a potency between 64 and 1000 μg/mL inclusive)”. Moreover, the “E. coli PBP2 Potency” value on E. coli PBP2 was “B (B represents a potency between 64 and 1000 μg/mL inclusive)”. Moreover, the “E. coli PBP3 Potency” value on E. coli PBP3 is “C (C represents a potency of <64 μg/mL)”. Besides, the figures for the MIC (in the assay with S. aureus ATCC 29213; in assay [1]) were over 128 mg/L and under 64 mg/L, respectively.

For the compound `CNC(=O)C(C)(C)O/N=C(\C(=O)N[C@H]1Cc2cccc(C(=O)O)c2OB1O)c1csc(N)n1` [Example 69, (R,Z)-3-(2-(2-aminothiazol-4-yl)-2-(((2-methyl-1-(methylamino)-1-oxopropan-2-yl)oxy)imino)acetamido)-2-hydroxy-3,4-dihydro-2H-benzo[e][1,2]oxaborinine-8-carboxylic Acid], the “E. coli K12 PBP1a/b Potency” value in the assay on E. coli K12 PBP1a/b was “C (C represents a potency of <64 μg/mL)”. Moreover, at E. coli PBP2, the “E. coli PBP2 Potency” value was “C (C represents a potency of <64 μg/mL)”. In addition, on E. coli PBP3, the “E. coli PBP3 Potency” value is reported as “C (C represents a potency of <64 μg/mL)”. For the same compound, the MIC with S. aureus ATCC 29213 is over 128 mg/L; in assay [1], under 64 mg/L.

In the case of `CNC(=O)C(C)O/N=C(\C(=O)N[C@H]1Cc2cccc(C(=O)O)c2OB1O)c1csc(N)n1` (stereo partly drawn) [Example 70, (3R)-3-((Z)-2-(2-aminothiazol-4-yl)-2-(((1-(methylamino)-1-oxopropan-2-yl)oxy)imino)acetamido)-2-hydroxy-3,4-dihydro-2H-benzo[e][1,2]oxaborinine-8-carboxylic Acid], the “E. coli K12 PBP1a/b Potency” value in the assay on E. coli K12 PBP1a/b is given as “C (C represents a potency of <64 μg/mL)”. Further, on E. coli PBP2, the “E. coli PBP2 Potency” value is on record as “C (C represents a potency of <64 μg/mL)”. On E. coli PBP3, the “E. coli PBP3 Potency” value is reported as “C (C represents a potency of <64 μg/mL)”. The MIC was over 128 mg/L in the assay on S. aureus ATCC 29213 and under 64 mg/L in assay [1].

Consider `CC(O/N=C(\C(=O)N[C@H]1Cc2cccc(C(=O)O)c2OB1O)c1csc(N)n1)C(=O)O` (stereo partly drawn) [Example 71, (3R)-3-((Z)-2-(2-aminothiazol-4-yl)-2-((1-carboxyethoxy)imino)acetamido)-2-hydroxy-3,4-dihydro-2H-benzo[e][1,2]oxaborinine-8-carboxylic Acid], for which, in the assay on E. coli K12 PBP1a/b, the “E. coli K12 PBP1a/b Potency” value was “C (C represents a potency of <64 μg/mL)”. The “E. coli PBP2 Potency” value at E. coli PBP2 is given as “C (C represents a potency of <64 μg/mL)”. In addition, the “E. coli PBP3 Potency” value at E. coli PBP3 is “C (C represents a potency of <64 μg/mL)”. The MIC is over 128 mg/L with S. aureus ATCC 29213 and under 64 mg/L in assay [1].

As for `CC(C)(O/N=C(\C(=O)N[C@H]1Cc2cccc(C(=O)O)c2OB1O)c1csc(N)n1)C(N)=O` [Example 72, (R,Z)-3-(2-(((1-amino-2-methyl-1-oxopropan-2-yl)oxy)imino)-2-(2-aminothiazol-4-yl)acetamido)-2-hydroxy-3,4-dihydro-2H-benzo[e][1,2]oxaborinine-8-carboxylic Acid], the “E. coli K12 PBP1a/b Potency” value with E. coli K12 PBP1a/b is on record as “C (C represents a potency of <64 μg/mL)”. Also, the “E. coli PBP2 Potency” value at E. coli PBP2 was “C (C represents a potency of <64 μg/mL)”. Moreover, the “E. coli PBP3 Potency” value on E. coli PBP3 was “C (C represents a potency of <64 μg/mL)”. The MIC in the assay on S. aureus ATCC 29213 was over 128 mg/L; in assay [1] it was under 64 mg/L.

Regarding `CC(O/N=C(\C(=O)N[C@H]1Cc2cccc(C(=O)O)c2OB1O)c1csc(N)n1)C(N)=O` (stereo partly drawn) [Example 73, (3R)-3-((Z)-2-(((1-amino-1-oxopropan-2-yl)oxy)imino)-2-(2-aminothiazol-4-yl)acetamido)-2-hydroxy-3,4-dihydro-2H-benzo[e][1,2]oxaborinine-8-carboxylic Acid], the “E. coli K12 PBP1a/b Potency” value in the assay on E. coli K12 PBP1a/b is recorded as “C (C represents a potency of <64 μg/mL)”. In addition, the “E. coli PBP2 Potency” value at E. coli PBP2 is reported as “C (C represents a potency of <64 μg/mL)”. In addition, the “E. coli PBP3 Potency” value on E. coli PBP3 is listed as “C (C represents a potency of <64 μg/mL)”. The values for the MIC (in the assay with S. aureus ATCC 29213; in assay [1]) were over 128 mg/L and under 64 mg/L, respectively.

Consider `CC(C)(O/N=C(\C(=O)N[C@H]1Cc2cccc(C(=O)O)c2OB1O)c1csc(N)n1)C(=O)N[C@@H](CO)C(=O)O` [Example 74, (R)-3-((Z)-2-(2-aminothiazol-4-yl)-2-(((1-(((S)-1-carboxy-2-hydroxyethyl)amino)-2-methyl-1-oxopropan-2-yl)oxy)imino)acetamido)-2-hydroxy-3,4-dihydro-2H-benzo[e][1,2]oxaborinine-8-carboxylic Acid], for which the “E. coli K12 PBP1a/b Potency” value in the assay with E. coli K12 PBP1a/b was “C (C represents a potency of <64 μg/mL)”. Also, on E. coli PBP2, the “E. coli PBP2 Potency” value is on record as “C (C represents a potency of <64 μg/mL)”. In addition, the “E. coli PBP3 Potency” value at E. coli PBP3 is listed as “C (C represents a potency of <64 μg/mL)”. The results for the MIC (in the assay with S. aureus ATCC 29213; in assay [1]) were over 128 mg/L and under 64 mg/L, respectively.

The record behind these values is patent US11267826B2, “Penicillin-binding protein inhibitors” (priority 2017, dated 2022).
